# Test results from patent publication US7763596B2, “Selective glucocorticoid receptor agonists” (The University of Manchester, priority 2000, dated 2010).
# Numbering of substitutions follows the chain as printed.
# Assays:
# [1] = target: T1, progesterone receptor (PRB) (Homo sapiens, UniProt P06401); assay: Progestogen activity assay using progesterone receptor transactivation; format: cell-based; conditions: unpublished data, conditions not given
# T1 construct: expressed in transfected cells; host or cells: COS 7
# T1 sequence (P06401 1-933): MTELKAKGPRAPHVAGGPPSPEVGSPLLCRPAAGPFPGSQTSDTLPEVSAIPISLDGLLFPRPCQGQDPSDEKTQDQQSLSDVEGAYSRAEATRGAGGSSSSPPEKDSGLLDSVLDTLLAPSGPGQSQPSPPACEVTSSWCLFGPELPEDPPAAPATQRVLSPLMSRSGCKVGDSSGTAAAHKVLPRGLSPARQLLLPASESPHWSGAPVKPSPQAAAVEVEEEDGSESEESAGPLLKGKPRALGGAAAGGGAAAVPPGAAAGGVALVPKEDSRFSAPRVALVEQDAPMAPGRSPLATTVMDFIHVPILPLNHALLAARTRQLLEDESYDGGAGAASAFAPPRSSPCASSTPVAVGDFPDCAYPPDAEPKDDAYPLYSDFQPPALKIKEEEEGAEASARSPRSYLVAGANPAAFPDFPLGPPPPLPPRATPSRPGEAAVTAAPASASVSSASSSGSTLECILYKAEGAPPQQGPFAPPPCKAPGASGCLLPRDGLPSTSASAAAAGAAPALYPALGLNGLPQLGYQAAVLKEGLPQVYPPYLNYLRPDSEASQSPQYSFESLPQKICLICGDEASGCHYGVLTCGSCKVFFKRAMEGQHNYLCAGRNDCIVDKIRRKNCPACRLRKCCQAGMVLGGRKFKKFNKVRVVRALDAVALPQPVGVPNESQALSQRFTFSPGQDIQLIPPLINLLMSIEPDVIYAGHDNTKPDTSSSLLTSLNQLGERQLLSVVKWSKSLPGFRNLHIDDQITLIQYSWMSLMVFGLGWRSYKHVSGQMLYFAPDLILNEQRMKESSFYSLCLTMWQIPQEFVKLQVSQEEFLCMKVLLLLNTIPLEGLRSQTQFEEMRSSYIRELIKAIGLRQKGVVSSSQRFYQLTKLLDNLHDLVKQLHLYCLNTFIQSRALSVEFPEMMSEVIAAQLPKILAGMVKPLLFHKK
# [2] = tested on: CEM-C7A cells; assay: Apoptosis assay in CEM-C7A cells (viable cell count, MTS); format: cell-based, human
# Method: The CEM-C7A cell line is a steroid sensitive clone of the CCRF-CEM cell line (ECACC 85112105). This is a T lymphoblastoid cell line with functional endogenous GR.
# Apoptosis (programmed cell death) is mediated by a protein called Bax the transcription of which is primarily controlled by the GR in a ligand dependant manner. To measure the ability of a GR ligand to effect apoptosis a suitable cell line was incubated with ligand and a viable cell count was performed after three days.
# CEM-C7A cells were plated out on to a 96well plate at 5×10^5/well. The steroids of FIGS. 1 and 2A were added immediately to generate a final concentration of 100 nM. After a three day incubation the live cell number in each well was assessed using Celltiter 96 Aqueous Non-Radioactive Cell Proliferation Assay (Promega). This assay is a calorimetric method for determining the number of viable cells in proliferation or chemosensitivity assays.
# Briefly, the assay is composed of solutions of a novel tetrazolium compound (3-(4,5-dimethylthiazol-2-yl)-5-(3-carboxymethoxyphenyl)-2-(4-sulfophenyl)-2H-tetrazolium, MTS) and an electron coupling reagent (phenazine methosulfate; PMS). MTS is bioreduced by cells into a formazan product that is soluble in tissue culture medium. The absorbance of the formazan at 490 nm can be measured directly from 96 well assay plates without additional processing. The conversion of MTS into aqueous, soluble formazan is accomplished by dehydrogenase enzymes found in metabolically active cells. The quantity of formazan product as measured by the amount of 490 nm absorbance is directly proportional to the number of living cells in culture.
# [3] = target: T2, glucocorticoid receptor (Homo sapiens, UniProt P04150); parameters: expressed in transfected cells; host or cells: COS 7 (African green monkey kidney, deficient in endogenous GR); conditions: in-vitro, other investigators; cited from earlier work
# T2 sequence (P04150 1-777): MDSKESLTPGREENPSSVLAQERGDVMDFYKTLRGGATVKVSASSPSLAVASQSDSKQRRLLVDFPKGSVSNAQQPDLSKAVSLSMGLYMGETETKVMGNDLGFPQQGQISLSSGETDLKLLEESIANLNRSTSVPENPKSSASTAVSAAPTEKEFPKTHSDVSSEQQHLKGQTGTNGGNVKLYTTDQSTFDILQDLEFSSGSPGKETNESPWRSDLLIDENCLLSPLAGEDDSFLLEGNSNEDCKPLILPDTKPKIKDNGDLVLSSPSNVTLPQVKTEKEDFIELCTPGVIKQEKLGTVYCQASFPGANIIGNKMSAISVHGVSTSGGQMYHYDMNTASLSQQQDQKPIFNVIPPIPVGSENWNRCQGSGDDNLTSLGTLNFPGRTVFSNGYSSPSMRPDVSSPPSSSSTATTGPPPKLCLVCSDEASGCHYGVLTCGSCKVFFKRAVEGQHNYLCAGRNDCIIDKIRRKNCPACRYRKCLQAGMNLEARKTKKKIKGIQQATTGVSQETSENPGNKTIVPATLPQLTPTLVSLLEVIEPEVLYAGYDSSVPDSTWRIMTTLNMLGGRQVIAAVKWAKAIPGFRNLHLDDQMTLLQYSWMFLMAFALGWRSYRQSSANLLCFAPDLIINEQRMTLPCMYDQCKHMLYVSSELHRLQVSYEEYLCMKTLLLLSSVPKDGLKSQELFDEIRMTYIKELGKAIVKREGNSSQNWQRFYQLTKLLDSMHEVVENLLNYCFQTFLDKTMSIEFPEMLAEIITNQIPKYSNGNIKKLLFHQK
# [4] = cited from earlier work
# [5] = target: T3, wild-type GR (Homo sapiens, UniProt P04150); assay: Transactivation of the MMTV promoter by wild-type GR; format: cell-based; conditions: 100 nM
# T3 construct: expressed in transfected cells
# T3 sequence (P04150 1-777): T2 sequence (P04150 1-777)
# [6] = target: T4, GR Tyr735ser (Homo sapiens, UniProt P04150, Y735S); assay: Transactivation of the MMTV promoter by mutant GR Tyr735ser; format: cell-based; conditions: 100 nM
# T4 construct: expressed in transfected cells
# T4 sequence (P04150 1-777 Y735S): T2 sequence (P04150 1-777) with Y735S
# [7] = target: T5, GR Tyr735phe (Homo sapiens, UniProt P04150, Y735F); assay: Transactivation of the MMTV promoter by mutant GR Tyr735phe; format: cell-based; conditions: 100 nM
# T5 construct: expressed in transfected cells
# T5 sequence (P04150 1-777 Y735F): T2 sequence (P04150 1-777) with Y735F
# [8] = target: T6, GR Tyr735val (Homo sapiens, UniProt P04150, Y735V); assay: Transactivation of the MMTV promoter by mutant GR Tyr735val; format: cell-based; conditions: 100 nM
# T6 construct: expressed in transfected cells
# T6 sequence (P04150 1-777 Y735V): T2 sequence (P04150 1-777) with Y735V
SMILES,activation of the progesterone receptor [1],effect on proliferation ([2]; CEM C7A cells),"induction of apoptosis ([2]; CEM C7A cells, 100 nM, three day incubation)","induction of apoptosis ([2]; unpublished data, conditions not given)",selectivity for transrepression over transactivation [3] [fold],desired profile in-vivo [4],induction of MMTV [5] [fold],induction of MMTV [6],induction of MMTV [7] [fold],induction of MMTV [8] [fold]
"C[C@@H]1C[C@H]2[C@@H]3CCC4=CC(=O)C=C[C@]4(C)[C@@]3(F)[C@@H](O)C[C@]2(C)[C@H]1C(=O)CC#N [RU24858, reference compound]",activating the progesterone receptor,impaired proliferation,did not induce significant apoptosis,does not induce apoptosis,2,failed to show the desired profile in-vivo,–,–,–,–
C[C@]12CCC(=O)C=C1CC[C@@H]1[C@@H]2[C@@H](O)C[C@@]2(C)[C@H]1CC[C@]2(O)C(=O)CO [hydrocortisone],–,–,–,–,–,–,18,failed to induce the reporter,11,10.6
